Key:
[1] = tested on: SAM in HCT116 human colon carcinoma cell line with deleted MTAP gene; experiment: Cellular assay of target engagement (SAM): SAM level by LC-MS/MS after 72 hrs; format: cell-based; settings: HCT-116, IC50 score, read-out: Cell 72 h SAM Inhibition (MTAP −/−)
Procedure, shortened: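 MTAP-deleted HCT116 cells were seeded, then exposed 24 h later to a 10-point 3-fold compound dilution series for 72 h at 37 °C/5% CO2. They were lysed in cold 80% methanol/acetic acid containing d3-SAM internal standard. SAM was quantified by LC-MS/MS (MRM, m/z 399.2→250.1).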

HCT116 MTAP +/+ = experiment: Inhibition of cellular proliferation, 4 days, Cell Titer Glo, HCT116 MTAP+/+; format: cell-based; settings: Homo sapiens, HCT-116, 96 h, IC50 score, read-out: 4 Day Relative Growth Inhibition (MTAP +/+)
Procedure, shortened: (§1)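 Isogenic human colon carcinoma lines differing only in MTAP status, plated 24 h before dosing, then exposed for 4 days at 37 °C/5% CO2 to a 10-point 3-fold dilution series (0.2% DMSO final). Read-out is Cell Titer Glo ATP luminescence, blank-subtracted and normalised to in-plate DMSO control, plotted as % proliferation change versus log molar concentration.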

MAT2A homodimer = molecular target: T1, MAT2A homodimer (Homo sapiens, UniProt P31153); experiment: Biochemical assay: inhibition of recombinant MAT2A homodimer (phosphate release, PiColorLock Gold); settings: MAT2A IC50 score; read-out: Enzyme Inhibition
T1 construct: inferred from Ni sepharose purification and imidazole elution; made in house; host or cells: Sf9 insect cells, recombinant baculovirus (Bac to Bac, pFASTBAC1 vector)
T1 sequence (P31153 whole entry): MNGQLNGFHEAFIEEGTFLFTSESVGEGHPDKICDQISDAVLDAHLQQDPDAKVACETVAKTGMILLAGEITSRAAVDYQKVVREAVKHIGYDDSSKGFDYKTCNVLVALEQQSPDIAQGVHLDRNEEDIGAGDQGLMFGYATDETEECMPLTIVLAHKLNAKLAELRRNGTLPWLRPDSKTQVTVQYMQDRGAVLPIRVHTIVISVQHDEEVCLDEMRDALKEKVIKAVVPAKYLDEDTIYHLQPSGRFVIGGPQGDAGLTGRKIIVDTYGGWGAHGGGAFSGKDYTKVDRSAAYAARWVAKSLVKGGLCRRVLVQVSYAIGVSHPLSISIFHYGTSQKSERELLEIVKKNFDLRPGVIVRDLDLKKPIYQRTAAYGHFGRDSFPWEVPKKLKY
Procedure, shortened: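 Baculovirus/Sf9-expressed, Ni-purified MAT2A at 4 μg/mL in pH 8.0 Tris/KCl/MgCl2/EDTA/BSA buffer, preincubated with compound 60 min at 25 °C. Started with ATP and L-methionine substrate mix (500 μM and 40 μM, stock in mix), 60 min at 25 °C; released phosphate by PiColorLock Gold against a phosphate standard curve.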

HCT116 MTAP-/- = experiment: Inhibition of cellular proliferation, 4 days, Cell Titer Glo, HCT116 MTAP-/-; format: cell-based; settings: Homo sapiens, HCT-116, 96 h, IC50 score, read-out: 4 Day Relative Growth Inhibition (MTAP −/−)
Procedure, shortened: as §1

| SMILES | IC50 [1] [nM] | IC50 (HCT116 MTAP +/+) [nM] | IC50 (MAT2A homodimer) [nM] | IC50 (HCT116 MTAP-/-) [nM] |
| --- | --- | --- | --- | --- |
| COc1ccc(-n2c(=O)c(-c3ccc4nncn4c3)cc3ccc(OCC(F)F)nc32)cc1 [Example 194, 3-([1,2,4]triazolo[4,3-a]pyridin-6-yl)-7-(2,2-difluoroethoxy)-1-(4-methoxyphenyl)-1,8-naphthyridin-2(1H)-one] | < 100 | 100 to 1000 | < 100 | < 100 |
| CCOc1ccc2cc(-c3ccc4ncn(C)c4c3)c(=O)n(-c3ccc(Cl)cc3)c2n1 [Example 195] | < 100 | 100 to 1000 | < 100 | < 100 |
| CCOc1ccc2cc(-c3ccc4nn(CC(C)(C)O)cc4c3)c(=O)n(-c3ccc(Cl)cc3)c2n1 [Example 196] | < 100 | 100 to 1000 | < 100 | 100 to 1000 |
| CCOc1ccc2cc(-c3ccc4nccn4c3)c(=O)n(-c3ccc(Cl)cc3)c2n1 [Example 197] | < 100 | ≥ 1000 | < 100 | < 100 |
| CCOc1ccc2cc(-c3ccc(=O)n(C)c3)c(=O)n(-c3ccc(Cl)cc3)c2n1 [Example 199] | < 100 | ≥ 1000 | < 100 | 100 to 1000 |
| CCOc1ccc2cc(-c3ccc4nnn(C)c4c3)c(=O)n(-c3ccc(Cl)cc3)c2n1 [Example 200] | < 100 | 100 to 1000 | < 100 | < 100 |
| CCOc1ccc2cc(-c3ccc4nn(C)nc4c3)c(=O)n(-c3ccc(Cl)cc3)c2n1 [Example 201] | < 100 | ≥ 1000 | < 100 | < 100 |
| CCOc1ccc2cc(-c3ccnc(OC)c3)c(=O)n(-c3ccc(Cl)cc3)c2n1 [Example 202] | 100 to 1000 | ≥ 1000 | < 100 | 100 to 1000 |
| CCOc1ccc2cc(-c3ccc4ncsc4c3)c(=O)n(-c3ccc(Cl)cc3)c2n1 [Example 203] | < 100 | ≥ 1000 | < 100 | < 100 |
| CCOc1ccc2cc(-c3ccn4nccc4c3)c(=O)n(-c3ccc(Cl)cc3)c2n1 [Example 204] | < 100 | ≥ 1000 | < 100 | < 100 |
| CCOc1ccc2cc(-c3ccc4nncn4c3)c(=O)n(-c3ccc(Cl)cc3)c2n1 [Example 205] | < 100 | ≥ 1000 | < 100 | < 100 |
| CCOc1ccc2cc(-c3ccc4nn(CC(C)(C)O)cc4c3)c(=O)n(-c3ccc(OC(F)F)cc3)c2n1 [Example 207] | < 100 | 100 to 1000 | < 100 | 100 to 1000 |
| CCOc1ccc2cc(-c3ccc(=O)n(C)c3)c(=O)n(-c3ccc(OC(F)F)cc3)c2n1 [Example 208] | < 100 | 100 to 1000 | < 100 | < 100 |
| CCOc1ccc2cc(-c3ccc4nnn(C)c4c3)c(=O)n(-c3ccc(OC(F)F)cc3)c2n1 [Example 209] | < 100 | 100 to 1000 | < 100 | < 100 |
| CCOc1ccc2cc(-c3ccc4nccn4c3)c(=O)n(-c3ccc(OC(F)F)cc3)c2n1 [Example 210] | < 100 | 100 to 1000 | < 100 | < 100 |
| CCOc1ccc2cc(-c3ccc4nn(CC(C)(C)O)cc4c3)c(=O)n(-c3ccc(OC(F)F)nc3)c2n1 [Example 213] | 100 to 1000 | ≥ 1000 | < 100 | 100 to 1000 |
| O=c1c(-c2ccc3nncn3c2)cc2ccc(OCC(F)(F)F)nc2n1-c1ccc(Cl)cc1 [Example 214] | < 100 | ≥ 1000 | < 100 | 100 to 1000 |

| SMILES | IC50 [1] [nM] | IC50 (HCT116 MTAP +/+) [nM] | IC50 (MAT2A homodimer) [nM] | IC50 (HCT116 MTAP-/-) [nM] |
| --- | --- | --- | --- | --- |
| CCOc1ccc2cc(-c3ccc4nncn4c3)c(=O)n(-c3ccc(OC(F)F)cc3)c2n1 [Example 216] | < 100 | ≥ 1000 | < 100 | < 100 |
| CCOc1ccc2cc(-c3ccc4nncn4c3)c(=O)n(-c3ccc(OC)cc3)c2n1 [Example 217] | < 100 | ≥ 1000 | < 100 | < 100 |
| O=c1c(-c2ccc3nncn3c2)cc2ccc(OCC(F)F)nc2n1-c1ccc(Cl)cc1 [Example 218] | < 100 | ≥ 1000 | < 100 | < 100 |
| CCOc1ccc2cc(-c3ccc4nncn4c3)c(=O)n(-c3ccc(OC(F)(F)F)cc3)c2n1 [Example 219] | < 100 | ≥ 1000 | < 100 | 100 to 1000 |
| [2H]C([2H])([2H])Oc1ccc(-n2c(=O)c(-c3ccc4nncn4c3)cc3ccc(OCC(F)F)nc32)cc1 [Example 220] | < 100 | ≥ 1000 | < 100 | < 100 |
| [2H]C([2H])([2H])Oc1ccc(-n2c(=O)c(-c3ccc4nncn4c3)cc3ccc(OCC)nc32)cc1 [Example 221] | < 100 | ≥ 1000 | < 100 | < 100 |
| CCOc1ccc2nc(-c3ccc4nn(C)cc4c3)c(=O)n(-c3ccc(Cl)cc3)c2n1 [Example 222, 4-(4-chlorophenyl)-6-ethoxy-2-(2-methyl-2H-indazol-5-yl)pyrido[2,3-b]pyrazin-3(4H)-one] | < 100 | ≥ 1000 | < 100 | < 100 |
| CCOc1ccc2nc(-c3ccc(OC)cc3)c(=O)n(-c3ccc(OC(F)F)cc3)c2n1 [Example 223] | 100 to 1000 | ≥ 1000 | < 100 | 100 to 1000 |
| CCOc1ccc2nc(-c3ccc4nn(C)cc4c3)c(=O)n(-c3ccc(OC(F)F)cc3)c2n1 [Example 224] | < 100 | 100 to 1000 | < 100 | < 100 |
| Cn1cc2cc(-c3nc4ccc(NCC(F)(F)F)nc4n(-c4ccc(OC(F)F)cc4)c3=O)ccc2n1 [Example 225] | < 100 | ≥ 1000 | < 100 | < 100 |
| Cn1cc2cc(-c3nc4ccc(NCC(F)(F)F)nc4n(-c4ccc(Cl)cc4)c3=O)ccc2n1 [Example 226] | < 100 | ≥ 1000 | < 100 | < 100 |
| COc1ccc(-c2nc3ccc(NCC(F)(F)F)nc3n(-c3ccc(OC(F)F)cc3)c2=O)cc1 [Example 227] | < 100 | ≥ 1000 | < 100 | < 100 |
| Cn1cc2cc(-c3nc4ccc(OCC(F)F)nc4n(-c4ccc(OC(F)F)cc4)c3=O)ccc2n1 [Example 228] | < 100 | ≥ 1000 | < 100 | < 100 |
| CCOc1cnc2cc(-c3ccc4nn(C)cc4c3)c(=O)n(-c3ccc(Cl)cc3)c2n1 [Example 229, 5-(4-chlorophenyl)-3-ethoxy-7-(2-methyl-2H-indazol-5-yl)pyrido[2,3-b]pyrazin-6(5H)-one] | < 100 | ≥ 1000 | < 100 | < 100 |
| CCOc1cnc2cc(-c3ccc(OC)cc3)c(=O)n(-c3ccc(OC(F)F)cc3)c2n1 [Example 230] | < 100 | 100 to 1000 | < 100 | 100 to 1000 |
| CCOc1cnc2cc(-c3ccc4nn(C)cc4c3)c(=O)n(-c3ccc(OC(F)F)cc3)c2n1 [Example 231] | < 100 | 100 to 1000 | < 100 | < 100 |

Source: patent US20220251081A1, “HETEROBICYCLIC INHIBITORS OF MAT2A AND METHODS OF USE FOR TREATING CANCER” (priority 2019, published 2022)
